Measured values as given in PMC11885506, “Evaluation of a non-animal toolbox informed by adverse outcome pathways for human inhalation safety” (Frontiers in Toxicology, 2025).
Entries after “also recorded” stand apart in the source; their conditions may differ. Read-outs that look alike come from different tables or passages of the source.

Columns and labels:
[1] = system: MucilAir™-HF tissues; test: Mucin-5AC (Muc5AC) immunohistochemistry, goblet cells, MucilAir-HF model; type: cell-based, human; conditions: for % of Muc5AC area: average ± standard deviation
Description: (§1) Tissues were handled as recommended by manufacturer’s instruction.
The presence of goblet cells was assessed through immunohistochemistry analysis for mucin-5AC protein (Muc5AC) detection. IL-13 and cytomix were used as positive controls (see item 2.5.2 for additional details). On last day of experiment (day 12), cultures (n = 3 tissues/group) were rinsed in PBS and fixed by immersion in 4% formaldehyde for 20 min. Fixed tissues were embedded into paraffin, sectioned, and processed for staining on paraffin sections. The immunostaining of the sections was performed with the Benchmark automated platform (Ventana-Roche, Hoffmann-La Roche Ltd, Basel, Switzerland) and the Autostainer Link 48 (Agilent, Santa Clara, CA. United States) with the detection kit Ultraview DAB (DAB chromogeny, Hoffmann-La Roche Ltd). Sections were pre-treated using heat mediated antigen retrieval with sodium citrate buffer, pH 6, for 20 min. The section was then incubated with recombinant anti-mucin 5AC antibody (ab3649, Abcam) for 1 h at room temperature, followed by biotinylated secondary antibody (Dako) and HRP detection (HRP conjugated ABC system, Vector Laboratories), according to manufacturer’s instruction. The section was then counterstained with hematoxylin (Sigma-Aldrich) and mounted with DPX, a synthetic non-aqueous mounting medium for microscopy. Digital images of the slides were then acquired, and quantitative image analysis performed using Image Pro Plus 6.2 (Media Cybernetics) to quantify the goblet cells on a section. The whole images of stained sections were scanned, and an average 15 images/section were analysed. The results are the ratio between the mucin 5AC stained area and the total surface area of the epithelium on the section.

[2] = system: monocyte-derived macrophages (MDMs); conditions: 20 µM; ref Zeng et al., 2021; cited from earlier work
[3] = system: RLE-6TN rat lung epithelial cells; conditions: 0.5 µM; ref Jiao et al., 2017; cited from earlier work
[4] = system: airway epithelial cell lines; parameters: method as in Nilsson et al., 2010; conditions: 40 µM for 60 min, corrected and normal cell lines; ref Nilsson et al., 2010; cited from earlier work
[5] = system: cystic fibrosis phenotype cells; parameters: method as in Perez et al., 2007; conditions: 20 µM for 3-5 days; ref Perez et al., 2007; cited from earlier work
[6] = system: MucilAir™-HF tissues; test: Cytokine and chemokine measurements (Luminex), MucilAir-HF model; type: cell-based, human; conditions: MucilAir-HF
Description: as §1
Basolateral medium samples of the tissue cultures were collected and stored at −80°C until analysis. The following cytokines/chemokines were quantified using customized Human Luminex® Discovery Assay kits (R&D Systems): chemokine (C-C motif) ligand (CCL) 2, CCL7, CCL26, C-X-C motif chemokine ligand (CXCL) 10, CXCL11, intercellular adhesion molecule-1 (ICAM-1), IL-1α, IL-6, IL-8, matrix metalloproteinase (MMP)-1, MMP-2, MMP-3, MMP-7, MMP-9, osteopontin, interferon (IFN)-γ, IL-1 receptor antagonist (IL-1Ra), urokinase-type plasminogen activator receptor (uPAR), tumour necrosis factor (TNF)-α, urokinase (uPA), serpin E1, tissue inhibitor of metalloproteinase 1 (TIMP-1), and TGF-β1. Samples were measured in technical triplicates according to the manufacturer’s recommendation using a Luminex Bio-Plex® 200 RUO System ([…]).

[7] = system: EpiAlveolar™ tissues; test: Histology and immunohistochemistry, EpiAlveolar model, Laboratory 2; conditions: Laboratory 2, 12-day period
Description: To evaluate the quality of EpiAlveolar™ tissues over the 12-day experimental period, histological and immunohistochemistry assessments for detection of pan-cytokeratin, vimentin, aquaporin 5, pro-surfactant C, CD68, caspase-3, and/or αSMA were performed by Laboratories 1 and 2.
Tissues were kept in 10% phosphate buffered formalin at 4°C for up to 48 h. Samples were then fixed in 70% ethanol and two strips of membrane were trimmed from each sample, processed, and paraffin-embedded to be cut at 5 µm thick sections and mounted to glass slides. The slides were then dewaxed in xylene, hydrated using graded industrial methylated spirit (70-100%) and stained with H&E for light microscope analysis.
For immunohistochemistry analysis, tissue sections-containing microscope slides were obtained and processed using a Discovery Ultra Staining System (Roche), according to manufacturer’s instructions, except for anti-CD68 staining that was manually performed. The slides were incubated at 60°C for 8 min and then deparaffinized at 69°C for 24 min. After that, slides were incubated with inhibitor CM or peroxidase blocking solution (for anti-CD68 staining) for 8 min at room temperature. The slides were then incubated at room temperature with the following primary monoclonal antibodies, following manufacturer’s instructions: anti-α smooth muscle actin (αSMA) at 1:500 (Leica Microsystems Ltd), anti-CD68 at 1:3000 for macrophages (11192-T24, Sino Biological), anti-pro-surfactant C protein at 1:1000 (AB3786, Sigma-Aldrich), anti-caspase-3 at 1:10000 (AB4051, Abcam), anti-aquaporin 5 (31661, Invitrogen), anti-pan-cytokeratin for epithelial cells (760-2595, Roche), and anti-vimentin for mesenchymal cells (790-2917, Roche). […]
A board-certified pathologist evaluated the changes (epithelial thinning, separation/detachment areas, necrosis, collagen, and presence of apoptotic cells, myofibroblasts, and type II pneumocytes) using a semi-quantitative scoring system (Table 2).

[8] = system: cultured alveolar macrophages and epithelial cells; parameters: method as in JOUNEAU et al., 2011; conditions: 10 µg/mL for 48h, bacteria strain not specified; ref JOUNEAU et al., 2011; cited from earlier work
[9] = system: primary human bronchial epithelial cells; parameters: method as in Wu et al., 2010; conditions: 1 μg/mL for 24h, bacteria strain not specified; ref Wu et al., 2010; cited from earlier work
[10] = system: MucilAir™-HF tissues; test: Cilia beating frequency (CBF) analysis, MucilAir-HF model
Description: The MucilAir™-HF system (EP11MD) and ready-to-use chemically-defined, serum-free culture medium (EP04AM) were obtained from Epithelix Sàrl (Geneva, Switzerland). Tissues were handled as recommended by manufacturer’s instruction. […] After differentiation for 42 up to 81 days at the air-liquid interface (ALI) under standard culture conditions (37°C ± 1°C in a humidified atmosphere of 5% ± 1% CO2 in air), tissues were washed 3 days before first exposure and each insert was inspected for beating cilia and mucus production. This washing step (one or twice with PBS) were performed to remove accumulated mucus and cell debris to minimize the risk of interference with the toxicity tests. Over 12-day experimental period, washing steps as well as media changes was performed every 2-3 days.
For toxicity testing performed over a 12-day experimental period, tissues were daily exposed to 3 different concentrations of each test material for 30 min or 6 h (for detailed information on each material see Table 1). […] Tissues were exposed by test materials via nebulization, liquid apical application, or liquid basal application. These differences in the exposure type were due to solubility of the test material, route of exposure (inhaled or systemic), or comparison with previous publications. […]

[11] = system: primary human nasal epithelial cells; parameters: method as in Uchenna Agu et al., 1999; conditions: ref Uchenna Agu et al., 1999, cited from earlier work
[12] = system: HBE16 airway epithelial cells; conditions: 20 μM for 12h; ref Li et al., 2010; cited from earlier work
[13] = system: EpiAirway-100 human upper respiratory tract epithelium model; conditions: 25-125 mM for 24h; ref Balharry et al., 2008; cited from earlier work
[14] = system: A549 human lung adenocarcinoma cell line; conditions: 0.1-5 µM for 3h; ref Guo et al., 2012; cited from earlier work
[15] = 30 min/day exposure, day 12, High 1 concentration (third of the tested concentrations)
[16] = 30 min/day exposure, day 12, Low concentration (first of the tested concentrations)
[17] = 30 min/day exposure, day 12, Medium concentration (second of the tested concentrations)
[18] = 6 h/day exposure, day 12, single tested concentration

| Compound | % of Muc5AC area [1, 15] [%] | % of Muc5AC area [1, 16] [%] | % of Muc5AC area [1, 17] [%] | % of Muc5AC area [1, 18] [%] | also measured |
| --- | --- | --- | --- | --- | --- |
| C[S+]([O-])CCCCN=C=S (stereo not drawn) [Sulforaphane, R,S-Sulforaphane] | 5.04 ± 0.71 | 3.74 ± 0.71 | 9.38 ± 0.80 | 2.55 ± 0.62 | Anti-inflammatory activity [2]: anti-inflammatory activity by suppressing the expression of Toll-like receptors (TLR2 and TLR4); Protection from cigarette smoke extract-induced oxidative damage [3]: protect from cigarette smoke extract-induced oxidative damage |
| O=C(O)c1ccc(/C=C2\SC(=S)N(c3cccc(C(F)(F)F)c3)C2=O)cc1 [CFTRinh-172] | 6.93 ± 0.51 | 7.15 ± 1.06 | 11.01 ± 0.81 |  | Changes in Muc5AC protein expression (in words) [1]: not able to promote any changes; also recorded: did not induce expected increase in mucin secretion or Muc5AC protein expression; TEER values [4]: time-dependent increase in TEER values; GM-CSF, IL-6 and/or IL-8 secretion levels [5]: no changes in granulocyte/macrophage colony-stimulating factor, IL-6 and/or IL-8 secretion levels |
| Lipopolysaccharide from Pseudomonas aeruginosa 10 [LPS] | 4.28 ± 0.76 | 2.87 ± 0.77 | 4.30 ± 0.90 | 1.58 ± 0.40 | Cytokines/chemokines modulated (in words) ([6]; 30 min/day exposure): did not promote modulation of the different cytokines/chemokines; Cytokines/chemokines modulated (in words) ([6]; 6 h/day exposure): increased levels of proteins involved in the inflammatory response (e.g., IL-6, IL-8, and TNF-α) and degradation of extracellular matrix/fibrosis (e.g., MMP-3 and uPAR); Histological changes compared to vehicle and control groups (in words) [7]: changes were not observed; MMP-9 supernatant levels and mRNA transcripts [8]: significant increase in MMP-9 supernatant levels and mRNA transcripts; IL-6 and IL-8 protein and mRNA transcripts levels [9]: significant increase of IL-6 and IL-8 protein and mRNA transcripts levels |
| Cc1cc(O)ccc1Cl [Chlorocresol, 4-Chloro-3-methylphenol] | 6.95 ± 0.30 | 14.47 ± 0.87 | 8.85 ± 1.77 |  | Tissue functionality (CBF, MCC, mucin secretion) change (in words) [10]: not able to induce changes in tissue functionality (e.g. reduced CBF); CBF ([11]; 0.005% w/ v for 1-20 min): reversible cilio-inhibitory effects by significantly decreasing CBF; CBF ([11]; 0.1% w/v): instantaneous and irreversible ciliostasis |
| CN1CCC[C@H]1c1cccnc1 [Nicotine] | 5.94 ± 1.90 | 0.89 ± 0.62 | 3.91 ±0.79 |  | TNF-α, IL-8, IL-6 and MUC5AC supernatant protein and mRNA levels [12]: did not trigger changes in TNF-α, IL-8, IL-6 and MUC5AC supernatant protein and mRNA levels; TEER values (integrity of the epithelial membrane) [13]: biphasic response with a large and significant increase of TEER values at low concentrations followed by a steady decrease at higher concentrations; Cytotoxicity (LDH release) [14]: did not trigger cytotoxicity |
